# In patent publication US12281084B2, “Acetyl-CoA synthetase 2 (ACSS2) inhibitors and methods using same” (The Wistar Institute, priority 2019, dated 2025):
# Tests used:
# BT474 tumors = experiment: QuantSeq 3' mRNA sequencing of BT474 tumor tissue; type: in vivo, mouse; settings: vehicle vs treated mice
# Procedure: QuantSeq 3′ mRNA sequencing of BT474 tumor tissue from vehicle and VY-3-135 treated mice was performed. Similar to in vitro results in FIG. 3, the effects of VY-3-135 on gene transcription in vivo were minimal. […] Furthermore, of the 248 differentially regulated genes only 7 changed by more than 2-fold and none by more than 2.5-fold (FIGS. 14A-14B).
# recombinant human ACSS2 = biological target: T1, recombinant human ACSS2 (Homo sapiens, UniProt Q9NR19); experiment: ACSS2 biochemical assay (Transcreener AMP assay); settings: in vitro biochemical TranScreener assay; mean±S.D., n≥3 (FIG. 1C)
# T1 construct: purchased Origene TP304260
# Procedure: ACSS2 enzyme activity was measured using the TRANSCREENER® TRF AMP/GMP assay (Bellbrook Labs). Recombinant ACSS2 was purchased from Origene. The assay was performed in white, opaque, low volume 384 well plates. Test compounds were diluted in 100% DMSO and then 100 nL of each dilution was transferred using the Janus MDT Nanohead to assay plates containing 3 μL ACSS2 (2.5 nM) in assay buffer (30 mM HEPES, pH 7.4, 140 mM NaCl, 2 mM MgCl2, 5 mM sodium acetate, 2 mM DTT, 0.005% Brij35). Three microliters of substrate mix containing 100 μM ATP and 10 μM coenzyme A was added to the plates followed by a 120 min incubation. The final concentrations of enzyme and substrates in the reaction mix was 1.25 nM ACSS2, 50 μM ATP, and 5 μM coenzyme A. After incubation, 3 μL of terbium conjugated AMP antibody and AMP tracer was added to the plates according to the methods described by BellBrook Labs. After an additional 30 min, the HTRF signal was measured using an Envision Plate reader. Data were normalized to % inhibition, where 100% inhibition is equal to the counts obtained in the absence of ACSS2, and 0% inhibition is equal to the counts obtained in the complete reaction including a DMSO control.
# A robust biochemical screening assay was set up for testing compounds as potential ACSS2 inhibitors. […]
# SKBr3 cells = experiment: 13C2-acetate tracing in SKBr3 cells; type: cell-based, human; settings: 100 μM 13C2-acetate, 24 hr, N10 or H1 (FIG. 2B)
# Procedure: All metabolomic experiments were performed in serum-like modified Eagle's medium (SMEM). SMEM contains 54 different nutrients that are found in the bloodstream at concentrations that are physiologically relevant to humans. SMEM was supplemented with 10% or 1% fetal bovine serum (FBS; Life Technologies). Cells were grown in normoxia (atmospheric oxygen) or hypoxia (1% oxygen) while being incubated in uniformly labeled ^13C2-acetate (0.100 mM; Cambridge Isotope Laboratories). Lengths of incubation are described in the figure legends. For extraction of metabolites from cultured cells, SMEM medium was aspirated and cells were washed once in ice-cold PBS. Metabolites were extracted by adding a solution of LC-MS grade methanol/acetonitrile/water (5:3:2) to the well. […]
# LC-MS analysis was performed on a Q Exactive Hybrid Quadrupole-Orbitrap HF-X MS (ThermoFisher Scientific) equipped with a HESI II probe and coupled to a Vanquish Horizon UHPLC system (ThermoFisher Scientific). […] Samples were analyzed in full MS scan with polarity switching at scan range 65 to 975 m/z; 120,000 resolution; automated gain control (AGC) target of 1E6; and maximum injection time (max IT) of 100 milliseconds. Identification and quantitation of metabolites was performed using an annotated compound library and TraceFinder 4.1 software. […]
# T1 sequence (Q9NR19 whole entry): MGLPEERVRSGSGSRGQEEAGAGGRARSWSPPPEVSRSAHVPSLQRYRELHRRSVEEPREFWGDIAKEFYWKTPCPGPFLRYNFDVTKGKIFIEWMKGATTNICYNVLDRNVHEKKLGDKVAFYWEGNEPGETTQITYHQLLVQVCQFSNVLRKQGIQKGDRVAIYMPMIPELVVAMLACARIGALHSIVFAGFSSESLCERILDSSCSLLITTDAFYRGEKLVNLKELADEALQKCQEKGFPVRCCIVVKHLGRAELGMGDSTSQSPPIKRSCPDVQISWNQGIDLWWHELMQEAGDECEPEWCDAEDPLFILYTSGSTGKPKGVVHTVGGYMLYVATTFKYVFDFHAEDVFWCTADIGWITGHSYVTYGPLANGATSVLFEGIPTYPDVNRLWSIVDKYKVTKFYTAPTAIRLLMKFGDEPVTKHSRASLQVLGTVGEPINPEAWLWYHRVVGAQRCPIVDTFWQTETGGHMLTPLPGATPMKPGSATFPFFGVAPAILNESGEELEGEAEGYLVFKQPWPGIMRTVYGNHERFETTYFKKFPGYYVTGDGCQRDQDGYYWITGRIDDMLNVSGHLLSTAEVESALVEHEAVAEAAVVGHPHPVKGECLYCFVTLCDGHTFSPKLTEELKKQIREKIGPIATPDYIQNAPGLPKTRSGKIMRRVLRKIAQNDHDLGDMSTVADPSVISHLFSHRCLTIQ
compound,measurement,setting,value
"CCn1c(C(O)(c2ccccc2)c2ccccc2)nc2ccc(C(=O)NC[C@@H](C)O)cc21 [VY-3-135, (R)-1-ethyl-2-(hydroxydiphenylmethyl)-N-(2-hydroxypropyl)-1H-benzo[d]imidazole-6-carboxamide]",effects on gene transcription in vivo,BT474 tumors,minimal
same,IC50,recombinant human ACSS2,0.044 ± 0.00385 µM
same,fatty acid synthesis from acetate (13C2-acetate labeling of palmitate),SKBr3 cells,completely blocked fatty acid synthesis from acetate
